Laboratory results as given in paper PMC10156683, “Male-selective effects of oxytocin agonism on alcohol intake: behavioral assessment in socially housed prairie voles and involvement of RAGE” (Neuropsychopharmacology, 2022).
Counter-ions that a name gives are not always drawn.

Experiments:
RAGE = assay: Involvement of RAGE in brain penetration of d5 OXT: pre-treatment with RAGE antagonist FPS ZM1; type: in vivo, prairie vole (Microtus ochrogaster)
Excerpt: Following confirmation of the presence of RAGE mRNA and protein in prairie vole brain using RT-PCR and immunohistochemistry as described in the Supplementary Material, we tested whether IN or IP administered OXT penetrates into the brain and whether the RAGE protein is involved in this transport. Adult female and male prairie voles were assigned to control or treatment groups. Animals in the treatment group received the high affinity, BBB-permeant RAGE antagonist FPS ZM1 and control animals received saline 30 min prior to administration of oxytocin-(leucine-5,5,5-d3, glycine-2,2-d2) trifluoroacetate salt (d5 OXT) in saline to all animals. […]
(§1) Alcohol and water intake were calculated for each animal as liquid consumed in grams (adjusted per density of 5% (v/v) ethanol and water) over body weight in kilograms. Alcohol and water drink size were determined by the volume of liquid consumed (ml) per consumption event. Consumptive visits were defined as channel entries during which a consumption event was recorded. […] Cumulative measures were analyzed at hourly intervals for 24 h post-treatment. […]
In 5 (1 control female, 2 control males, 1 pre-treated female and 1 pre-treated male) out of 57 cases levels were above or below 2 standard deviations from the mean and thus removed from analysis. In cases when no d5 OXT was detected, the concentration was entered as zero (17 total). […]

AVPR1a = details: cited from earlier work
Excerpt: Determining the behavioral and molecular effects of OXT on alcohol consumption is important for translational application and optimization of treatment efficacy. […] Given OXT’s low brain-penetrance and potentially non-specific effects on the related vasopressin receptor AVPR1a, development of an OXTR receptor agonist with a more desirable pharmacokinetic profile could increase the tran ...

in vivo = assay: in vivo; parameters: species or system prairie vole (Microtus ochrogaster); details: for tissue level at time at 10 min: female
Excerpt: Following confirmation of the presence of RAGE mRNA and protein in prairie vole brain using RT-PCR and immunohistochemistry as described in the Supplementary Material, we tested whether IN or IP administered OXT penetrates into the brain and whether the RAGE protein is involved in this transport. Adult female and male prairie voles were assigned to control or treatment groups. Animals in the treatment group received the high affinity, BBB-permeant RAGE antagonist FPS ZM1 and control animals received saline 30 min prior to administration of oxytocin-(leucine-5,5,5-d3, glycine-2,2-d2) trifluoroacetate salt (d5 OXT) in saline to all animals. After 10 min, animals were deeply anaesthetized under 4% isoflurane and perfused with heparinized saline. […] Brains were extracted and snap-frozen in isopentane, then stored at −80 °C until prepared for analysis via LC-MS/MS (Supplementary Fig. S2).
OXT acetate salt (Bachem, Torrence, CA, USA) was dissolved in normal saline to doses of 5.0 mg/kg and 10.0 mg/kg (25 µl, IN). LIT-001 was synthesized in the laboratory of Dr. Marcel Hibert. […]
as §1
Adult female and male prairie voles (75- 207d) were assigned to control (n =28; females = 14) or treatment (n = 29; females = 15) groups pseudo-randomly to ensure genetic diversity across groups. Whole brain tissue samples (~650 mg) were homogenized, subjected to protein precipitation and solid-phase extraction, and analyzed for concentrations (pg/mg) of exogenous oxytocin-(leucine-5,5,5-d3, glycine-2,2-d2) trifluoroacetate salt (d5 OXT) using a Shimadzu Nexera-LCMS-8060 (Shimadzu, Kyoto, Japan) liquid chromatograph-triple quadrupole mass spectrometer. […]

prairie voles [1] = assay: Continuous-access two-bottle choice (CA-2BC) alcohol drinking in socially housed prairie voles, HM2 cages, mixed-cage design; type: in vivo, prairie vole (Microtus ochrogaster)
Protocol: For experiments examining the effects of pharmacologically targeting the OXT system on alcohol (and water) consumption, adult female and male prairie voles were given ad libitum access to alcohol in a CA-2BC design for 6 days. […] Fluid consumption was measured before and after treatment (IN OXT or IP LIT-001, or vehicle) using the Herdsman-2 (HM2; MBrose Faaborg, Denmark) cage system. The HM2 system is designed to allow socially housed animals unrestrained access to and interaction with other animals in the cage, while accounting for precise, individualized measures of fluid intake through the combined use of balances and radiofrequency identification (RFID) implants. This cage system has been previously utilized to assess potential pharmacotherapies for AUD in rodents. Further details are provided in the Supplementary Material (Supplementary Fig. S1). Consistent with previous studies, a mixed-cage design (treated and control animals in the same cage) was used.
OXT acetate salt (Bachem, Torrence, CA, USA) was dissolved in normal saline to doses of 5.0 mg/kg and 10.0 mg/kg (25 µl, IN). LIT-001 was synthesized in the laboratory of Dr. Marcel Hibert. It was dissolved in 5% dimethyl sulfoxide in saline and administered at a dose of 10 mg/kg (IP). FPS ZM1 (1 mg/kg, IP; Tocris, Minneapolis, MN, USA) and d5 OXT (3 µg/25 µl, IN or 12 µg/0.1 ml, IP; Sigma-Aldrich, St. Louis, MO, USA) were dissolved in saline. The d5 OXT dose was based on previous assessments of OXT penetrance.
Alcohol and water intake were calculated for each animal as liquid consumed in grams (adjusted per density of 5% (v/v) ethanol and water) over body weight in kilograms. Alcohol and water drink size were determined by the volume of liquid consumed (ml) per consumption event. Consumptive visits were defined as channel entries during which a consumption event was recorded. […] Cumulative measures were analyzed at hourly intervals for 24 h post-treatment. Concentrations of d5 OXT (pg/mg of tissue) were obtained through LC-MS/MS analysis on a Shimadzu Nexera-LCMS-8060 instrument using a previously established method. Data analysis was performed in IBM SPSS Statistics 27 and visualization was performed in Prism 9.3.1. The distribution of many of these measures was not normal. Therefore, non-parametric statistics were applied, including Kruskal–Wallis test and post hoc analyses with Mann–Whitney U-test. While Results below only include p values, detailed statistical analyses are presented in Supplementary Material Table S1.
The Herdsman-2 (HM2) system was used in the experiments measuring alcohol consumption. The HM2 cage system consists of Techniplast 1500U Eurostandard type IV S (48 x 37.5 x 21cm) rodent housing cages equipped with two (11cm) channels (front and back) on one side and stairs specially designed to accommodate prairie voles. Each channel leads to a bottle (one water, one 5% ethanol in water, v/v) below which is a precision balance with a catch tray for spillage- which is automatically deducted from consumption calculations. Breakage of the photobeam at the entrance of the channel triggers the RFID reader to register the animal. A consumption event is initiated when the animal touches the drinking spout and a change of weight of at least 0.02 g is detected; the starting weight is saved and ending weight is registered only after the system receives a stable reading for 5 s. A consumption event is ended 30s after the last touch of the drinking spout, regardless of whether the animal remains in the channel. The system collects a number of measures, including: weight of liquid consumed, number of channel entries and consumptive vs. non-nutritive visits (whether liquid is consumed or not). […]

[2] = cited from earlier work
Excerpt: Determining the behavioral and molecular effects of OXT on alcohol consumption is important for translational application and optimization of treatment efficacy. […] While a statisti ...

prairie voles [3] = details: both sexes, previous prairie vole study; cited from earlier work
Excerpt: Importantly, RAGE immunoreactivity was detected in the choroid plexus, hypothalamus and hippocampus, confirming expression in possible locations of central penetration. […] Studies in mice noted that the IN route of administration can result in hi ...

What does the source list for `O=C(c1ccc(Cl)cc1)N(Cc1ccccc1)C1CCCCC1` [FPS ZM1]?
Effect of antagonist pre-treatment on brain d5 OXT levels after IP d5 OXT (in words) (RAGE; female or male prairie voles, FPS ZM1 1 mg/kg IP 30 min before IP d5 OXT, control vs antagonist pre-treated, ps > 0.21): No significant differences; Effect of antagonist pre-treatment on brain d5 OXT levels after IN d5 OXT (in words) (RAGE; male prairie voles, FPS ZM1 1 mg/kg IP 30 min before IN d5 OXT, vs vehicle pre-treated controls, p = 0.02): significantly decreased

Which “Affinity for the AVPR1a (in words)” value (AVPR1a) does the source give for `Cc1cc(C(=O)N2Cc3cnn(C)c3Nc3ccccc32)ccc1CNC(=O)N1CCN(Cc2cc(O)cc(O)c2)CC1` [WAY-267646] here?
Its value is “moderate affinity”.

Which tissue level at time at 10 min (in vivo; 3 ug) does the source give for `CC[C@H](C)[C@@H]1NC(=O)[C@H](Cc2ccc(O)cc2)NC(=O)[C@@H](N)CSSC[C@@H](C(=O)N2CCC[C@H]2C(=O)N[C@@H](CC(C)C)C(=O)NCC(N)=O)NC(=O)[C@H](CC(N)=O)NC(=O)[C@H](CCC(N)=O)NC1=O` [d5 OXT, oxytocin-(leucine-5,5,5-d3, glycine-2,2-d2) trifluoroacetate salt] here?
The tissue level at time at 10 min was 0.006 ng/g.

And the tissue level at time at 10 min (in vivo; ip, 12 ug)?
The tissue level at time at 10 min was 0.05 ng/g.

And the “Presence of d5 OXT in brain (in words)” value (in vivo; ip)?
The value was “detected”.

For Oxytocin [OXT], which “Water intake or drink size 3 h post-treatment (in words)” value (prairie voles [1]; IN OXT 5 and 10 mg/kg, 3 h post-treatment) is on record?
The value was “No effect”.

What about the “Alcohol or water consumptive visits or non-nutritive visits (in words)” value (prairie voles [1]; IN OXT 5 and 10 mg/kg, females and males, any time point, p > 0.94) of the same molecule?
The value was “No significant differences”.

What about the “Alcohol intake at 2 h post-treatment (in words)” value (prairie voles [1]; both doses of IN OXT (5 and 10 mg/kg), 2 h post-treatment, Kruskal-Wallis p = 0.02) of the same molecule?
Its value is “decreased alcohol intake”.

What about the “Effect on alcohol consumption in females (in words)” value (prairie voles [1]; female prairie voles, IN OXT 5 and 10 mg/kg) of the same molecule?
Its value is “without affecting alcohol consumption”.

And the “Alcohol intake vs control counterparts (in words)” value (prairie voles [1]; male prairie voles, 5 mg/kg and 10 mg/kg IN OXT, 3 h post-treatment, Mann-Whitney p = 0.01 and p = 0.02)?
The value was “lower alcohol intake”.

What about the “Alcohol drink size vs control counterparts (in words)” value (prairie voles [1]; male prairie voles, 5 mg/kg and 10 mg/kg IN OXT, 3 h post-treatment, p = 0.01 and p = 0.02) of the same molecule?
Its value is “smaller drink sizes”.

What about the “Water intake at 2 h post-treatment (in words)” value (prairie voles [1]; male prairie voles, 10 mg/kg IN OXT, 2 h post-treatment, p = 0.04) of the same molecule?
The value was “increased water intake”.

And the “Bioavailability (in words)” value [2]?
Its value is “low bioavailability”.

And the “Metabolic stability (in words)” value [2]?
The value was “metabolically unstable”.

What about the “Oral availability (in words)” value [2] of the same molecule?
Its value is “not orally available”.

And the Half-life ([2]; estimated)?
The Half-life was “tens of minutes”.

And the “Alcohol and water intake after IP OXT (in words)” value (prairie voles [3])?
Its value is “decreased alcohol and water intake”.

With TC-OT-39 as the molecule, how does the “Affinity for the AVPR1a (in words)” value (AVPR1a) read?
Its value is “moderate affinity”.
